Experiments:
Type in all cases: cell-based, Human
[1] = tested on: JAK/STAT signaling in NK-92 cells; experiment: JAK/STAT signaling Western blot and IL-2 stimulation assay in NK-92
Protocol: (§1) Total cell lysate was prepared with modified RIPA buffer (1M Tris-HCl (pH 7.5), 5M NaCl, 0.25% sodium deoxycholate, 10% NP-40 and 10 mM sodium fluoride) supplemented with ethylenediaminetetraacetic acid (EDTA)-free protease inhibitor (Roche™) and 2 mM sodium orthovanadate (Sigma-Aldrich™). Protein levels were quantified by bicinchoninic acid (BCA) assay. Protein lysate was separated by 10% SDS-PAGE and Western analysis was performed using primary antibodies listed in the tables below followed with horseradish peroxidase (HRP, 1:10,000, Jackson ImmunoResearch™) conjugated secondary antibodies.
For cytokine stimulation assay, NK-92 cells were pre-treated with L598 (30 μM) or vehicle control for three days. Before IL-2 stimulation, NK-92 cells were washed once with serum depleted cell media (no IL-2) and were starved for six hours in presence of L598 or vehicle control. After starvation, NK-92 cells were stimulated with IL-2 across a gradient concentration ranging from 0 to 90 IU/mL for 15 mins at 37° C. After incubation, cells were directly lysed with 2× concentrated TNE buffer and then boiled in 1× Laemmli Buffer to prepare cell lysates. Two independent experiments were performed.

[2] = tested on: NK-92 cells; experiment: qRT-PCR of lytic granule and IFNG mRNA in NK-92; conditions: steady state
Protocol: Total RNA was isolated with Qiagen™ RNeasy® Mini Kit™ without DNase I on column digestion, according to the manufactures protocol. Purified total RNA was resuspended in Dnase free, Rnase free, Protease free sterile water and quantified with NanoDrop™. A260/280 was above 2.0 (data not shown). RNA integrity was checked by gel electrophoresis. 500 ng of RNA was reverse transcribed into cDNA using the SuperScript™ III Reverse Transcriptase Kit™ (Thermo Fisher Scientific™), according to the manufacturer's protocol with random primer and Oligo(dT) 20 primer. Synthesized cDNA was treated with RNaseH. qRT-PCR was performed with BioRad™ CFX96 Real Time PCR Detection™ system using FastStart Essential DNA Green Master™ according to the manufacturer's instructions. TBP and B2M was used as housekeeping genes. Delta delta Cq method was used for analyzing relative expression of gene of interests with normalization to housekeeping genes.

[3] = tested on: NK-92 cells; experiment: Surface receptor expression on NK-92 (flow cytometry)
[4] = tested on: cord blood isolated NK cells; experiment: Surface receptor expression on cord blood NK cells (flow cytometry); conditions: 30 μM, with or without K-562 stimulation E:T 1:1, three hours
Excerpt: Human cord blood derived NK cells (CB-NK) were kindly provided by Dr. Linda Peltier's Cellular Therapy Laboratory at McGill University Health Center (Montreal, Canada) in frozen format and were stored in liquid nitrogen tank until usage. Briefly, 1×10^7 cells were resuspended in frozen medium consisting of ImmunoCult T Cell Medium supplemented with 10% DMSO final concentration. Frozen CB-NK cells were thawed, and ex vivo expanded at Goodman Cancer Research Center (GCRC) for five days in xeno-free ImmunoCult T cell expansion media supplemented with 10% PlasmaLyte A and freshly with a cytokine cocktail of IL-2 (5 ng/mL), IL-7 (5 ng/mL), IL-15 (5 ng/mL), SCF (15 ng/mL) and FLT3/L (10 ng/mL) every two days. […] On day three, inhibitor L598 and fresh cytokine cocktails were supplemented to the cell media. NK cell population purity and immunophenotype profiling of major activating and inhibitory receptors were assessed upon receiving shipments, after ex vivo expansion for five days and after anti-tumor cytolytic assay.

[5] = tested on: NK-92 cells; experiment: Lytic granule protein expression in NK-92 (flow cytometry, Western blot)
Protocol: as §1
NK-92 cells pre-treated with L598 (30 μM) or vehicle control were stimulated with K-562 tumor target cells [effector: target (E:T) at 1:1] or PMA/lonomycin (1 μg/mL each) or no-stimulation control with K-562 complete media, respectively. Anti-CD107a or LAMP-1 antibody (1:100, PE/Cy7 conjugated, clone H4A3, from BioLegend®) was added to cells at the start of degranulation assay. Golgi stop (containing Monensin, 1 μM) and Golgi plug (containing Brefeldin A, 4 μg/mL) were added to cells one hour after degranulation assay started and were kept until the end of the 6-hour-degranulation assay. Intracellular staining of GrB (1:40, PE conjugated, clone QA18A28, from BioLegend®) and PRF (1:40, FITC conjugated, clone B-D48, from BioLegend®) were performed with the Fixation/Permeabilization Solution Kit (BD® Biosciences) according to the manufacture's protocol. Cells were stained with fixable viability dye (1:2000) for 20 mins on ice and in dark, and blocked with FcBlock (1:20, diluted in 1× Perm/Wash buffer, Human truStain FcX from BioLegend®) for 5 mins at room temperature and in dark before intracellular staining. Cell gating and percentage of population quantification was based on no-stimulation control. For kinetics of degranulation assay, measurements were taken over three hours at 15 mins, 30 mins, 60 mins, 120 mins and 180 mins, with L598 (30 μM, three days) treated group and vehicle control group under the condition of tumor target cell K-562 stimulation (E: T at 1:1) or no stimulation. Intracellular cytolytic granule contents GrA, GrB and PRF were measured as mentioned previously.

Substance: 7-bromo-6-phosphono(difluoro-methyl)-3-napthalenonitrile [L598]
- sensitivity to low dosage short-term IL-2 stimulation (phospho-STAT1, 3, 4, 5) ([1]; 30 μM three days, starved six hours, IL-2 below 100 IU/mL, 15 mins): more sensitive
- minimum IL-2 at which increased STAT5 phosphorylation is detectable ([1]; IL-2 stimulation 15 mins after starvation): 30 IU/mL
- total protein expression of STAT members ([1]; IL-2 stimulation assay): might upregulate
- phosphorylation of STAT1, STAT3 and STAT4 under TGF-β1 and IL-2 ([1]; TGF-β1 and IL-2 stimulation condition): retained enhanced phosphorylation
- basal phosphorylation of STAT1, STAT3 and STAT4 ([1]; after six-hours serum and cytokine starvation in presence of inhibitor): increased
- phosphorylation of STAT2 and STAT6 ([1]; regular cell culture, inhibitor titration, three days): relatively stable
- phosphorylation of STAT1, STAT3, STAT4 and STAT5 ([1]; regular cell culture, inhibitor titration, three days, dosage dependent): increased phosphorylation
- mRNA expression of perforin, granzyme A, granzyme B and granzyme K ([2]; 30 μM three days): upregulated
- IFN-γ mRNA ([2]; 30 μM): upregulation
- IL-2Rα (CD25) expression ([3]; steady state, 10 μM): upregulated
- IL-2Rβ (CD122) expression ([3]; steady state, 10 μM): remained stable
- CD69 and activating receptors NKp30, NKp46, NKG2D on NK-92 ([3]; with or without K-562 stimulation): upregulation
- CD69 and activating receptor expression on cord blood NK cells [4]: upregulation
- thresholds of maximal expression of perforin and granzyme B ([5]; IL-2 titration, 30 μM): upregulated
- fold increase of perforin and granzyme B MFI over vehicle control ([5]; day three, IL-2 1250 IU/mL, 30 μM): approximately two-fold
- protein expression of perforin and granzyme B ([5]; gradual increasing concentration, three days): upregulated in a dosage dependent manner
- maximal expression of lytic granules after withdrawal, vs control ([5]; inhibitor withdrawn three consecutive days): similar
- fold change of perforin and granzyme B after withdrawal ([5]; inhibitor withdrawn three consecutive days, IL-2 titration): around one-fold
- fold change of intracellular perforin and granzyme over control ([5]; one-day treatment, IL-2 titration, 30 μM): started improving
- granzyme A protein expression ([5]; with or without inhibitor treatment): relatively stable
- granzyme B expression, treatment vs control group, without IL-2 ([5]; without IL-2 stimulation): almost no difference
